According to US4252807A, “Fused pyrimidine derivatives and antiatherosclerotic methods of treatment with them” (Chincin Gyogyszer es Vegyeszeti Termekek Gyara Rt., priority 1976, dated 1981):

Tests used:
[1] = test system: cholesterin-fed rabbit atherosclerosis model; test: cholesterin-fed rabbit atherosclerosis model (Table 1); assay type: in vivo; set-up: Serum triglyceride: unit not given here; details: for Serum triglyceride / Serum total cholesterin / Aorta total cholesterin / Aorta total lipid / Serum total lipid: rabbit, cholesterin-fed; for Serum triglyceride: Control-1 75, Control-2 103; for Serum total cholesterin: Control-1 326, Control-2 1504; for Aorta total cholesterin: Control-1 331, Control-2 921; for Aorta total lipid: Control-1 1928, Control-2 2575; for serum lipid, aorta lipid and cholesterin lipid level: in words, from the data of Table 1 (rabbit, 50 mg/kg)
normolyphaemic rats = test: normolyphaemic rats, serum lipids (Table 2); assay type: in vivo, rat; set-up: Serum triglyceride: unit not given here; details: for Serum cholesterine: Control 103; for Serum triglyceride: Control 185.1
[2] = dose 50 mg/kg, Control-1 (normal feed) 658, Control-2 (cholesterin) 2374

| Compound | Serum triglyceride ([1]; dose 50 mg/kg) | Serum total cholesterin ([1]; dose 50 mg/kg) | Aorta total cholesterin ([1]; dose 50 mg/kg) | Aorta total lipid ([1]; dose 50 mg/kg) | Serum total lipid [1, 2] | Serum cholesterine (normolyphaemic rats; 50 mg/kg p.o.) | Serum triglyceride (normolyphaemic rats; 50 mg/kg p.o.) | further results |
| --- | --- | --- | --- | --- | --- | --- | --- | --- |
| 6-methyl-9-chloro-phenyl)-methylene-4-oxo-6,7,8,9-tetrahydro-4H-pyrido(1,2a)pyrimidine-3-carboxylic acid ethylester | 190 | 1531 | 365 | 2461 | 2547 |  |  |  |
| CCOC(=O)c1cnc2n(c1=O)C(C)CCC2=Cc1cccn1C (centres unmarked) [A, 6-methyl-9-(N-methyl-2-pyrrolyl)-methylene-4-oxo-6,7,8,9-tetrahydro-4H-pyrido(1,2a) pyrimidine-3-carboxylic acid ethylester] | 121 | 1419 | 958 | 2496 | 2309 |  |  |  |
| CCOC(=O)C=C1CCC(C)n2c1ncc(C(=O)OCC)c2=O (centres unmarked) [C, 6-methyl-9-(ethoxycarbonyl-methylene)-4-oxo-6,7,8,9-tetrahydro-4H-pyrido(1,2a)-purimidine-3-carboxylic acid ethylester] | 119 | 1176 | 353 | 1878 | 1903 |  |  | serum lipid, aorta lipid and cholesterin lipid level [1]: significant decrease |
| CCOC(=O)C(C)(C)Oc1ccc(Cl)cc1 [Chlofibrate, reference compound] |  |  |  |  |  |  |  | Serum triglyceride ([1]; dose 250 mg/kg): 115; Serum total cholesterin ([1]; dose 250 mg/kg): 1137; Aorta total cholesterin ([1]; dose 250 mg/kg): 787; Serum total lipid ([1]; dose 250 mg/kg, Control-1 658, Control-2 2374): 1938; Aorta total lipid ([1]; dose 250 mg/kg): 2227; weight of the liver ([1]; test animals): increase the weight of the liver; Serum cholesterine (normolyphaemic rats; 250 mg/kg p.o.): 63.9; Serum triglyceride (normolyphaemic rats; 250 mg/kg p.o.): 144.1 |
| CCOC(=O)c1cnc2n(c1=O)C(C)CCC2CC(=O)O (centres unmarked) [D, 6-methyl-3-ethoxycarbonyl-4-oxo-6,7,8,9-tetrahydro-4H-pyrido(1,2a)pyrimidine-9-yl-acetic acid] | 97 | 972 | 186 | 1355 | 1638 |  |  | serum lipid, aorta lipid and cholesterin lipid level [1]: significant decrease |
| CCOC(=O)C=C1CCCn2c1ncc(C(=O)OCC)c2=O [E, 9-(ethoxycarbonyl-methylene)-4-oxo-6,7,8,9-tetrahydro-4H-pyrido(1,2a)pyrimidine-3-carboxylic acid ethylester] |  |  |  |  |  | 86.5 | 127.9 |  |
| CCOC(=O)C1=CNC2C(CC(=O)O)CCCN2C1=O (centres unmarked) [F, 9-(carboxyl-methyl)-4-oxo-1,6,7,8,9,9a-hexahydro-4H-pyrido(1,2a)pyrimidine-3-carboxylic acid ethylester] |  |  |  |  |  | 88.0 | 155.5 |  |
| CCOC(=O)c1cnc2n(c1=O)CCCC2CC(=O)O (centres unmarked) [G, 9-(carboxyl-methyl)-4-oxo-6,7,8,9-tetrahydro-4H-pyrido-(1,2a)pyrimidine-3-carboxylic acid ethylester] |  |  |  |  |  | 88.0 | 127.5 |  |
| COC(=O)C=C1CCC(C)n2c1ncc(C(=O)OC)c2=O (centres unmarked) [H, 9-(methoxycarbonyl-methylene)-6-methyl-4-oxo-6,7,8,9-tetrahydro-4H-pyrido(1,2a)pyrimidine-3-carboxylic acid methylester] |  |  |  |  |  | 90.2 | 107.9 |  |
